This is an account of results in patent US20050175976A1, “Meiosis activating sterol augments implantation rate” (priority 1999, published 2005).

Assay [1] concerns sterol 14-reductase (Δ14R). The settings on record: AY 0.1 μM, cultured rat hepatocytes; cited from earlier work.
The test system of assay [2] is mouse cumulus enclosed oocytes. Briefly: Induction of resumption of meiosis in mouse cumulus enclosed oocytes exposed to AY9944-A-7. It counts as cell-based. The procedure: Immature female C57BI/2J B6D2 mice (11-15 g) were stimulated with exogenous gonadotropins (7.5 IU per mouse; Gonadoplex, Leo, Ballerup, Denmark). Forty-eight hours after injection with gonadotropins, the mice were sacrificed and the ovaries removed. Cumulus enclosed oocytes (CEO) were recovered by puncturing individual follicles and collected in a culture medium (a-MEM, Gibco, BRL) supplemented with 3 mg/ml bovine serum albumin, 5 mg/ml human serum albumin, 2 mM L-glutamine, 100 IU/ml penicillin, 100 μg/ml streptomycin and 4 mM hypoxanthine (control medium).
Induction of resumption of meiosis in mouse cumulus enclosed oocytes exposed to an inhibitor of sterol Δ14-reductase (AY9944-A-7) during culture.
Oocytes from 10-15 mice were pooled and randomly divided into the different test groups. The tests were performed using 4-well dishes (Nunclon, Roskilde, Denmark) each well containing 20-50 oocytes in 400 μl culture medium. Each dish had one well serving as control and the three other wells as tests.
All test media were prepared using HX-medium. AY9944-A-7 (AY) was kindly provided by Wyeth-Ayerst, Princeton, N.J., USA. AY has no structural similarities to MAS. Stock solutions of AY9944 in water were stored at −20° C., and was added directly to the HX-medium immediately prior to oocyte culture. AY was used in concentrations from 0.2 to 25 μM.

The subject of assay [3] is mouse cumulus enclosed oocytes. Briefly: Resumption of meiosis (GVBD) in mouse cumulus enclosed oocytes exposed to Amphotericin B. It counts as cell-based. The procedure:
Amphotericin B is a medical product used against fungal infections by inhibiting cholesterol biosynthesis. It has no structural similarities to MAS. Its effect on resumption of meiosis was tested on mouse cumulus enclosed oocytes, in vitro. Ovarian stimulation was performed on immature female mice and the cumulus enclosed oocytes (CEO) isolated as described in Example 3.
Cumulus enclosed oocytes were cultured separately in 4-well dishes (Nuncleon, Roskilde, Denmark), 0.4 ml medium in each well containing control medium or medium supplemented with Amphotericin B (Bristol-Myers Squibb) in a 100% humidified atmosphere of 5% CO2 with 95% air at 37° C.
The effect of Amphotericin in concentrations of 0.6 and 1.2 μg/ml was evaluated after 22 hours in culture.
In another series of experiments, i.e. priming of CEO, the culture period with Amphotericin, priming period, varied from 5 min. to 240 min. in test medium with 1.2 μg/ml Amphotericin. After the priming period, the CEO were transferred to control medium and the culture continued for a total of 22 hours.
By the end of the culture period, germinal […] breakdown (GVBD) was scored by examining the oocyte in an inverted microscope. The percentage of oocytes with GVBD per total number of oocytes (% GVBD) was calculated.

Assay [4] relates to mouse cumulus enclosed oocytes. Briefly: Resumption of meiosis (GVBD) of mouse oocytes cultured in vitro with FSH and/or EGF. In kind it is cell-based. The following applies: EGF 0.5 ng/ml, 22-24 h, HX-medium. The procedure:
Immature female mice (B6D2-F1 strain C57B1/2J) were kept under controlled light and temperature conditions with free access to food and water. […] The percentage of oocytes with GVBD per total number of oocytes (% GVBD) was calculated.

Marks after values point to notes of the source that are not given here.

`Cl.Cl.Clc1ccccc1CNCC1CCC(CNCc2ccccc2Cl)CC1` (stereo not shown) [AY, AY9944-A-7]: the “Mode of action on Δ14R” value in assay [1] is recorded as “competitive inhibitor”. The “Oocyte maturation of CEO (FIG. 2)” value in assay [2] (AY 0.2 to 25 μM in HX-medium) was “stimulates oocyte maturation of CEO in a dose-dependent way”. In assay [2] (AY 5, 10 and 25 μM, p<0.05, p<0.001 and p<0.001), the “GVBD compared to the controls (FIG. 2)” value is listed as “increase GVBD significantly”.

`C[C@@H]1[C@H](O)[C@@H](C)/C=C/C=C/C=C/C=C/C=C/C=C/C=C/[C@H](O[C@@H]2O[C@H](C)[C@@H](O)[C@H](N)[C@@H]2O)C[C@@H]2O[C@](O)(C[C@@H](O)C[C@@H](O)[C@H](O)CC[C@@H](O)C[C@@H](O)CC(=O)O[C@H]1C)C[C@H](O)[C@H]2C(=O)O` [Amfotericin, Amphotericin B]: the “% GVBD” value in assay [3] (0.6 μg/ml, 22 hours in culture, 94 oocytes) was determined as 28%; in assay [3] (1.2 μg/ml priming 5 minutes, then control medium to 22 hours, 98 oocytes), 21%; in assay [3] (1.2 μg/ml priming 10 minutes, then control medium to 22 hours, 88 oocytes), 29%; in assay [3] (1.2 μg/ml priming 30 minutes, then control medium to 22 hours, 116 oocytes), 36%; in assay [3] (1.2 μg/ml priming 120 minutes, then control medium to 22 hours, 50 oocytes), 50%; in assay [3] (1.2 μg/ml priming 240 minutes, then control medium to 22 hours, 49 oocytes), 69%. For the same compound, the “% GVBD” value in assay [3] (1.2 μg/ml, 22 hours in culture, 121 oocytes) is given as 76%. Further, the “No. of GVBD” value was determined as 26 in assay [3] (0.6 μg/ml, 22 hours in culture, of 94 oocytes); 21 in assay [3] (1.2 μg/ml priming 5 minutes, then control medium to 22 hours, of 98 oocytes); 26 in assay [3] (1.2 μg/ml priming 10 minutes, then control medium to 22 hours, of 88 oocytes); 42 in assay [3] (1.2 μg/ml priming 30 minutes, then control medium to 22 hours, of 116 oocytes); 25 in assay [3] (1.2 μg/ml priming 120 minutes, then control medium to 22 hours, of 50 oocytes); 34 in assay [3] (1.2 μg/ml priming 240 minutes, then control medium to 22 hours, of 49 oocytes). Moreover, the “No. of GVBD” value in assay [3] (1.2 μg/ml, 22 hours in culture, of 121 oocytes) was found to be 92.

Turning to EGF: epidermal growth factor, in assay [4] (68 oocytes), the “% GVBD” value is 31^c,d %. Also, the “No. of GVBD” value in assay [4] (of 68 oocytes) worked out at 21.
